The values that follow come from ChEMBL document CHEMBL5727648, “5-aromatic alkynyl substituted benzamide compound and preparation method, pharmaceutical composition, and use thereof” (2020).

The target of this assay is Metabotropic glutamate receptor 5 (Homo sapiens, UniProt P41594). In words: The Fluo 8-AM fluorescent dye is an […] derivative of Fluo 8 which can easily penetrate the cell membrane into the cell by culture. The fluorescent dye into the cell will be hydrolyzed by intracellular esterase, the resulting Fluo 8 cannot easily pass through the lipid bimolecular membrane as a polar molecule, and will retain in the cell, and combine with calcium (Ca2+) to produce fluoresces.Cells expressing GPCR receptor protein (mGluR5) were first calibrated with a calcium ion sensitive fluorescent probe and then stimulated with the compound. After stimulation, the activation of the receptor lead to the calcium ion mobilization, and the fluorescent probe captures the calcium ion to induce the fluorescence signal. The signal can be read by a fluorescent plate reader. The fluorescent plate reader contains a sampling head for compound addition, thus enabling the change of the fluorescence value of the compound be read in real time. The assay is classed as cell-based.
Sequence of Metabotropic glutamate receptor 5 (P41594 whole entry): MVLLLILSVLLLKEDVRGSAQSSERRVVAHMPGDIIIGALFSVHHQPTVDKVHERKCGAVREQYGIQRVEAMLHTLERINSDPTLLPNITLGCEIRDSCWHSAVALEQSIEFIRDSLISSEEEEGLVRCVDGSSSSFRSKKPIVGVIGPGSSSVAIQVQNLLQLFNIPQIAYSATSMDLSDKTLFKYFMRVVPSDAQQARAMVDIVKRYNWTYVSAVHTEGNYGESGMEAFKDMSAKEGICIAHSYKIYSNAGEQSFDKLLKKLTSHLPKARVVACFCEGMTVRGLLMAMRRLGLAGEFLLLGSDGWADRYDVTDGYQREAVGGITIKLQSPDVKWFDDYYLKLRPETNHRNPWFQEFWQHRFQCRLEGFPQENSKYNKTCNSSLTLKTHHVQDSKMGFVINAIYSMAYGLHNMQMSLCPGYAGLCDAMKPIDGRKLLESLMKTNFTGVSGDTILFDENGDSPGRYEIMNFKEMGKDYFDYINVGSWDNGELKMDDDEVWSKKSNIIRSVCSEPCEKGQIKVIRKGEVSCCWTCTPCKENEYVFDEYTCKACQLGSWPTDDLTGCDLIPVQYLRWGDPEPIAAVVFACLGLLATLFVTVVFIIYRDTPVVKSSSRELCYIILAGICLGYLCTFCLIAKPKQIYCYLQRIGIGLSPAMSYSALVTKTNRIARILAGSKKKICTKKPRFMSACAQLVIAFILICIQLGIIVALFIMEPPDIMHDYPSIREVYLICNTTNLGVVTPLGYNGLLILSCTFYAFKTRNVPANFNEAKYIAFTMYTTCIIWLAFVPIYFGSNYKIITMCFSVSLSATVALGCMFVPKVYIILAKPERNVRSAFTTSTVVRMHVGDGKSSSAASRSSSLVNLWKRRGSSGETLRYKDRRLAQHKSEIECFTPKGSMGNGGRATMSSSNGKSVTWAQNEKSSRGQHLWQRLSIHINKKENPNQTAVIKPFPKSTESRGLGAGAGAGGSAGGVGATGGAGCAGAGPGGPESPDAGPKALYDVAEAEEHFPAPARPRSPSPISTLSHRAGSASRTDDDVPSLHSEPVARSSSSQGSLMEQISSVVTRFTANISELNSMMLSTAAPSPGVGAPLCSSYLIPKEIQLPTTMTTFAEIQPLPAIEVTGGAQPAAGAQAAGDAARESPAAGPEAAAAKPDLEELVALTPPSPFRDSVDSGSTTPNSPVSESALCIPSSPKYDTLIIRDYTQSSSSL

On to `Cc1nc(C#Cc2cccc(C(=O)N3CCc4ccccc4C3)c2)cs1`, for which the IC50 came to 14.4 nM.

Turning to `Cc1nc(C#Cc2cccc(C(=O)Nc3cccnc3)c2)cs1`, the IC50 was 14.2 nM.

One may read the IC50 as the concentration that inhibits the measured activity by half.
